BigSolDB 2.1

CC(=O)Nc1ccc(/C=N/NC(N)=S)cc1
solubility (mole fraction)
Details | 288.15 K | 293.15 K | 298.15 K | 303.15 K | 308.15 K | 313.15 K | 318.15 K
in n-hexane | 5.55e-06 | 7.25e-06 | 1.03e-05 | 1.34e-05 | 1.75e-05 | 2.21e-05 | 2.93e-05
in n-octanol | 0.00038 | 0.000439 | 0.000503 | 0.00058 | 0.000673 | 0.000762 | 0.000863
